In patent US12241083B2, “Macs-based purification of stem cell-derived retinal pigment epithelium” (FUJIFILM Cellular Dynamics, Inc., priority 2015, dated 2025):
Entries after “also recorded” stand apart in the source; their conditions may differ.

How the values were obtained:
Assay type in all cases: cell-based, human
[1] = test system: iPSC-RPE cells; experiment: Immunostaining of the iPSC-RPE monolayer (beta catenin, pERM, ZO1, RPE65, p27); details: for Production of mature RPE cells: conclusion from beta catenin and RPE65 staining; for p27 staining: treated cells vs untreated (untreated: weak p27 in nucleus), higher p27 suggests cell cycle exit; for Beta catenin staining: treated iPSC-RPE cells vs untreated (untreated: beta catenin in cytoplasm)
Text: The mature RPE cells were further developed into functional RPE cell monolayers that function as an intact RPE tissue by continued culture in the RPE-MM with additional small molecules such as primary cilium inducers like PGE2 or aphidicolin. Without being bound by theory, these primary cilium inducers suppress the canonical WNT pathway, induce cell cycle exit in the cells, and induce apical-basal polarization in the RPE monolayer. RPE maturity can alternatively be induced by canonical WNT pathway inhibitors such as IWP2 and endo-IWR1 that also induce cell cycle exit in RPE cells to promote RPE maturation. The cells were cultured in this medium for another 2-3 weeks to obtain mature and functional RPE cell monolayers. Thus, the presently disclosed methods provide mature RPE cells from pluripotent cells that can be consistently reproduced at a large scale for clinical applications.
(§1) For analysis of the mature RPE cells produced from treatment with PGE2, immunostaining of the RPE monolayer was performed to confirm the hexagonal architecture (FIGS. 4A-4C) of tight junctions by ZO1 staining as well as transmission electron microscopy of the iPSC-RPE cells (FIG. 4D).

[2] = test system: iPSC-derived RPE population; experiment: Inclusion of MEK inhibitor in RDM and RPE-MM during RPE differentiation; details: 1 μM in RDM and in RPE-MM (approximately Days 42 through 50)
Method: With regard to the methods described in Examples 2 and 3, the inclusion of PD0325901 at a concentration of 1 μM in media for certain windows of time beginning on Day 2 post iPSC plating through the end of the differentiation process, including post-MACS culture, may improve both purity of the RPE population (meaning a decrease in contaminating cells) as well as maturity of the resulting RPE population.

[3] = test system: iPSC-RPE cells; experiment: Transmission electron microscopy of iPSC-RPE cells; details: PGE2-treated vs untreated iPSC-RPE cells
Method: as §1

[4] = test system: iPSC-derived RPE cultures; experiment: Flow cytometry purity assay for RPE-specific markers
Method: The flow cytometry purity assay was performed to determine the percentage of RPE cells obtained by a sorting method of the present disclosure. An aliquot of the cell suspension collected from the MACS assay (2×10^6 cells in a 5 mL FACS tube per sample) was centrifuged at 400×g for 3 min. The cell pellet was resuspended in 1 mL of a stain (e.g., Live-Dead Red stain) and incubated in the dark at room temperature for 15 min. After incubation, 2 mL of wash buffer was added and the cells were centrifuged at 400×g for 3 min to remove any unbound stain. The cell pellet was resuspended in fixation buffer and incubated in the dark at room temperature for 15 min. After incubation, 2 mL of wash buffer were added and the cells were centrifuged at 400×g for 3 min and the supernatant was decanted. The cell pellet was resuspended in 2 mL of wash buffer to make a 1×10^6 cells/mL suspension and 200 μL of the cell suspension was transferred to a FACS tube. To each tube, 2 mL of perm buffer was added and cells were centrifuged at 400×g for 3 min. Primary antibodies for the RPE-specific markers were diluted in perm buffer and 100 μL diluted antibody solution was added to each tube. After incubation overnight at 4° C. in the dark, the cells were washed in 2 mL Penn Buffer two times. Secondary antibody solution was added to each of the tubes and cells were incubated at room temperature in the dark for 1-2 hours. […]
Next, it was tested whether an increase in the concentration of PGE2 from 50 μM to 100 μM in the RPE-MM+PGE2 medium would improve both purity of the RPE population (i.e., a decrease in contaminating cells) as well as maturity of the resulting RPE population. To determine the maturity and functionality of the 50 μM versus 100 μM PGE2 treated cultures, the barrier function in terms of transepithelial electrical resistance (TER) was measured (FIG. 7F) to compare the resistance of substances through the paracellular space as explained in Example 9. […]

[5] = test system: iPSC-derived RPE cells; experiment: Barrier function: transepithelial electrical resistance (TER) and potential (TEP) of the RPE monolayer
Method: To measure the barrier function of the RPE cells generated by the present methods, transepithelial electrical potential (TEP) was measured the ion gradient across the monolayer generated by energy-driven ion pumps that regulate passage across the cells, and transepithelial electrical resistance (TER) measures resistance of substances through the paracellular space mainly through the fine structure of the tight junction structure (FIG. 7A).
Functionality of the mature RPE cells treated with IWP2 or endo-IWR1 was also characterized.
Next, it was tested whether an increase in the concentration of PGE2 from 50 μM to 100 μM in the RPE-MM+PGE2 medium would improve both purity of the RPE population (i.e., a decrease in contaminating cells) as well as maturity of the resulting RPE population. To determine the maturity and functionality of the 50 μM versus 100 μM PGE2 treated cultures, the barrier function in terms of transepithelial electrical resistance (TER) was measured (FIG. 7F) to compare the resistance of substances through the paracellular space as explained in Example 9. To determine the percentage of pure RPE cells obtained after treatment of the iPSC-derived RPE cultures with 50 μM or 100 μM in the RPE-MM+PGE2 medium, flow cytometry purity assay was performed for RPE-specific markers (FIG. 7G) as described in Example 6.

[6] = treated iPSC-RPE cells vs untreated (untreated: low in cytoplasm)
[7] = day 75, 100 μM vs 50 μM PGE2 from day 54 to day 75

| Compound | Production of mature RPE cells [1] | p27 staining [1] | Beta catenin staining [1] | RPE65 staining [1, 6] | Purity and maturity of the RPE population [2] | ZO1 staining ([1]; treated and untreated iPSC-RPE cells) | pERM (Ezrin) staining [1, 6] | Apical processes in transmission electron micrographs [3] | Purity and maturity of the RPE population ([4]; PGE2 raised from 50 μM to 100 μM in RPE-MM+PGE2, judged by TER and flow cytometry) | Expression of Best 1 marker (late maturity RPE marker) [4, 7] | Percent expression of Pmel17, Tryp1 and Cralbp (RPE-specific markers) [4, 7] | Functional response (TER) ([5]; 100 μM vs 50 μM PGE2 in RPE-MM+PGE2 medium, Day 54 to Day 75) | TEP and TER measurements (functionality) ([5]; treated RPE cells versus untreated RPE cells) |
| --- | --- | --- | --- | --- | --- | --- | --- | --- | --- | --- | --- | --- | --- |
| Cc1ccc2nc(NC(=O)CSc3nc4c(c(=O)n3-c3ccccc3)SCC4)sc2c1 [IWP2, N-(6-Methyl-2-benzothiazolyl)-2-[(3,4,6,7-tetrahydro-4-oxo-3-phenylthieno[3,2-d]pyrimidin-2-yl)thio]-acetamide] | produces mature RPE cells | higher p27 expression in the nucleus | decreased beta catenin; also recorded: beta catenin on cell membrane | increased RPE65; also recorded: high in the cytoplasm | – | – | – | – | – | – | – | – | – |
| [Cl-].[Li+] [LiCl] | – | weak p27 expression in the nucleus | beta catenin in the nucleus | no staining is seen | – | – | – | – | – | – | – | – | – |
| O=C(NOC[C@H](O)CO)c1ccc(F)c(F)c1Nc1ccc(I)cc1F [PD0325901, N-[(2R)-2,3-Dihydroxypropoxy]-3,4-difluoro-2-[(2-fluoro-4-iodophenyl)amino]-benzamide] | – | – | – | – | improve both purity and maturity | – | – | – | – | – | – | – | – |
| CCCCC[C@H](O)/C=C/[C@H]1[C@H](O)CC(=O)[C@@H]1C/C=C\CCCC(=O)O [PGE2, prostaglandin E2] | produces mature RPE cells | – | decreased beta catenin; also recorded: at the membrane | increased RPE65; also recorded: high in the cytoplasm of the treated cells | – | at the tight junctions in the plasma membrane | high in the cytoplasm of the treated cells | more extensive apical processes | promotes both the purity and maturity | much higher | comparable expression | progressive increase | increased functionality |
